Counter-ions that a name gives are not always drawn.
Assays:
[1] = target: T1, human JAK3 kinase domain (JH1) (Homo sapiens, UniProt P52333); assay: JH1 biochemical assay for JAK3 (ADP-Glo kinase assay, recombinant JH1 catalytic domain, JAK3-974 peptide, 4 μM ATP)
T1 construct: recombinantly generated catalytic kinase (also known as JH1) domain of human JAK1, JAK2, JAK3 and TYK2
Method in brief: (§1)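 Reactions ran 100 min with 50 μM substrate peptide (JAK3-342 for JAK1 at 4 nM enzyme; JAK3-974 for JAK2 0.2 nM, JAK3 0.3 nM, TYK2 2 nM), and ADP formed was read by ADP-Glo luminescence. Eleven-point 3-fold series from 10 or 1 μM; IC50 fitted by 4-parameter logistic model.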

[2] = target: T2, human JAK1 kinase domain (JH1) (Homo sapiens, UniProt P23458); assay: JH1 biochemical assay for JAK1 (ADP-Glo kinase assay, recombinant JH1 catalytic domain, JAK3-342 peptide, 35 μM ATP)
T2 construct: recombinantly generated catalytic kinase (also known as JH1) domain of human JAK1, JAK2, JAK3 and TYK2
Method in brief: as §1

[3] = target: T3, human TYK2 kinase domain (JH1) (Homo sapiens, UniProt P29597); assay: JH1 biochemical assay for TYK2 (ADP-Glo kinase assay, recombinant JH1 catalytic domain, JAK3-974 peptide, 10 μM ATP)
T3 construct: recombinantly generated catalytic kinase (also known as JH1) domain of human JAK1, JAK2, JAK3 and TYK2
T3 sequence (P29597 897-1176 limits assumed): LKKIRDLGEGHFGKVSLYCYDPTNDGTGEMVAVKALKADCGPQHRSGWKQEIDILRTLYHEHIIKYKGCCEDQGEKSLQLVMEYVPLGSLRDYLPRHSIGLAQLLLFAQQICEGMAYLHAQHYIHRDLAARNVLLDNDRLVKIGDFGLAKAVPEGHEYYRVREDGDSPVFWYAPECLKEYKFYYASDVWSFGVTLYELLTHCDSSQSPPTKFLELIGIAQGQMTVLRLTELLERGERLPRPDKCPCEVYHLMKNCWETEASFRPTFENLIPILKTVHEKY
Method in brief: as §1

[4] = target: T4, human JAK2 kinase domain (JH1) (Homo sapiens, UniProt O60674); assay: JH1 biochemical assay for JAK2 (ADP-Glo kinase assay, recombinant JH1 catalytic domain, JAK3-974 peptide, 15 μM ATP)
T4 construct: recombinantly generated catalytic kinase (also known as JH1) domain of human JAK1, JAK2, JAK3 and TYK2
Method in brief: as §1

T2 sequence (P23458 875-1153 limits assumed): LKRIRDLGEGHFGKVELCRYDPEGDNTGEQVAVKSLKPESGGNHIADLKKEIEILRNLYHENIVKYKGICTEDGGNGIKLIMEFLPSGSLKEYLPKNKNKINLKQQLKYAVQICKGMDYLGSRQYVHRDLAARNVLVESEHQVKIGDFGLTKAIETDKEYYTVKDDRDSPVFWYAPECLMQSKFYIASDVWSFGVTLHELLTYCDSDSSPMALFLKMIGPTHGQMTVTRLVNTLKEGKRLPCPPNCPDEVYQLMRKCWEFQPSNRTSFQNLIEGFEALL
T4 sequence (O60674 849-1124 limits assumed): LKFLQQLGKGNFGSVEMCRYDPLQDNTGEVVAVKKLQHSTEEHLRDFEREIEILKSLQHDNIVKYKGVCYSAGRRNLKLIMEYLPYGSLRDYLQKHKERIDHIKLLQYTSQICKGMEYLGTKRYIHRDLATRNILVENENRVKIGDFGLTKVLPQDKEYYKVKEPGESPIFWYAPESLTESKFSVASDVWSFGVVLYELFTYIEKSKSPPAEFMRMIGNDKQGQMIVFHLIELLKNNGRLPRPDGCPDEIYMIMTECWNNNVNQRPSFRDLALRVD
T1 sequence (P52333 822-1111 limits assumed): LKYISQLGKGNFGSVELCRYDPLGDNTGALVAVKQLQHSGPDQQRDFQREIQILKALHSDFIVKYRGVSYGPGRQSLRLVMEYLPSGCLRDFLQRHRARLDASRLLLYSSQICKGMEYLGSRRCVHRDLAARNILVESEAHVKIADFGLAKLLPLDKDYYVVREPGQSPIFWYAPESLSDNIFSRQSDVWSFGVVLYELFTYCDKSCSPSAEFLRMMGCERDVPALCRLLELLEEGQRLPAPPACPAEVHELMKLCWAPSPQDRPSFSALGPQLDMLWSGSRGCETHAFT

| IC50 ([1]; JH1 kinase domain, ADP-Glo) [nM] | IC50 ([2]; JH1 kinase domain, ADP-Glo) [nM] | IC50 ([3]; JH1 kinase domain, ADP-Glo) [nM] | IC50 ([4]; JH1 kinase domain, ADP-Glo) [nM] | IC50 ([1]; JAK3 JH1, ADP-Glo) [nM] | IC50 ([2]; JAK1 JH1, ADP-Glo) [nM] | IC50 ([3]; TYK2 JH1, ADP-Glo) [nM] | IC50 ([4]; JAK2 JH1, ADP-Glo) [nM] | Compound |
| --- | --- | --- | --- | --- | --- | --- | --- | --- |
| 100 to 1000 | 100 to 1000 | 5 to 20 | 100 to 1000 |  |  |  |  | Cc1nc(-c2cc3c(N4C[C@@H](C)[C@@](C#N)(C5CC5)C4=O)ccnn3c2)ccc1F [Example 147, (3R,4S)-3-cyclopropyl-1-(6-(5-fluoro-6-methylpyridin-2-yl)pyrrolo[1,2-b]pyridazin-4-yl)-4-methyl-2-oxopyrrolidine-3-carbonitrile trifluoroacetate] |
| 100 to 1000 | 100 to 1000 | 20 to 50 | 100 to 1000 |  |  |  |  | C[C@@H]1CN(c2ccnn3cc(-c4cc(CO)ccn4)cc23)C(=O)[C@]1(C#N)C1CC1 [Example 148, (3R,4S)-3-cyclopropyl-1-(6-(4-(hydroxymethyl)pyridin-2-yl)pyrrolo[1,2-b]pyridazin-4-yl)-4-methyl-2-oxopyrrolidine-3-carbonitrile trifluoroacetate] |
| 1000 to 5000 | 1000 to 5000 | 20 to 50 | 5000 to 10000 |  |  |  |  | C[C@@H]1CN(c2ccnn3cc(-c4ncccc4O)cc23)C(=O)[C@]1(C#N)C1CC1 [Example 149, (3R,4S)-3-cyclopropyl-1-(6-(3-hydroxypyridin-2-yl)pyrrolo[1,2-b]pyridazin-4-yl)-4-methyl-2-oxopyrrolidine-3-carbonitrile trifluoroacetate] |
| 100 to 1000 | 100 to 1000 | 5 to 20 | 100 to 1000 |  |  |  |  | C[C@@H]1CN(c2ccnn3cc(-c4ccc(CO)cn4)cc23)C(=O)[C@]1(C#N)C1CC1 [Example 150, (3R,4S)-3-cyclopropyl-1-(6-(5-(hydroxymethyl)pyridin-2-yl)pyrrolo[1,2-b]pyridazin-4-yl)-4-methyl-2-oxopyrrolidine-3-carbonitrile trifluoroacetate] |
| 1000 to 5000 | 1000 to 5000 | 50 to 100 | 1000 to 5000 |  |  |  |  | C[C@@H]1CN(c2ccnn3cc(-c4cnccn4)cc23)C(=O)[C@]1(C#N)C1CC1 [Example 151, (3R,4S)-3-cyclopropyl-4-methyl-2-oxo-1-(6-(pyrazin-2-yl)pyrrolo[1,2-b]pyridazin-4-yl)pyrrolidine-3-carbonitrile trifluoroacetate] |
| 100 to 1000 | 100 to 1000 | 5 to 20 | 100 to 1000 |  |  |  |  | C[C@@H]1CN(c2ccnn3cc(-c4cnn5c4CCCC5)cc23)C(=O)[C@]1(C#N)C1CC1 [Example 173, (3R,4S)-3-cyclopropyl-4-methyl-2-oxo-1-(6-(4,5,6,7-tetrahydropyrazolo[1,5-a]pyridin-3-yl)pyrrolo[1,2-b]pyridazin-4-yl)pyrrolidine-3-carbonitrile] |
| > 10000 | 5000 to 10000 | > 100 | > 10000 |  |  |  |  | CCc1ccncc1-c1cc2c(N3C[C@@H](C)[C@@](C#N)(C4CC4)C3=O)ccnn2c1 [Example 175, (3R,4S)-3-cyclopropyl-1-(6-(4-ethylpyridin-3-yl)pyrrolo[1,2-b]pyridazin-4-yl)-4-methyl-2-oxopyrrolidine-3-carbonitrile trifluoroacetate] |
| 1000 to 5000 | 100 to 1000 | 20 to 50 | 1000 to 5000 |  |  |  |  | C[C@@H]1CN(c2ccnn3cc(-c4cncc(OC(F)F)c4)cc23)C(=O)[C@]1(C#N)C1CC1 [Example 177, (3R,4S)-3-cyclopropyl-1-(6-(5-(difluoromethoxy)pyridin-3-yl)pyrrolo[1,2-b]pyridazin-4-yl)-4-methyl-2-oxopyrrolidine-3-carbonitrile] |
| 5000 to 10000 | 5000 to 10000 | > 100 | > 10000 |  |  |  |  | CCc1ncccc1-c1cc2c(N3C[C@@H](C)[C@@](C#N)(C4CC4)C3=O)ccnn2c1 [Example 178, (3R,4S)-3-cyclopropyl-1-(6-(2-ethylpyridin-3-yl)pyrrolo[1,2-b]pyridazin-4-yl)-4-methyl-2-oxopyrrolidine-3-carbonitrile trifluoroacetate] |
| > 10000 | > 10000 | > 100 | > 10000 |  |  |  |  | C[C@@H]1CN(c2ccnn3cc(-c4cnccc4C(F)(F)F)cc23)C(=O)[C@]1(C#N)C1CC1 [Example 179, (3R,4S)-3-cyclopropyl-4-methyl-2-oxo-1-(6-(4-(trifluoromethyl)pyridin-3-yl)pyrrolo[1,2-b]pyridazin-4-yl)pyrrolidine-3-carbonitrile] |
| > 10000 | > 10000 | > 100 | > 10000 |  |  |  |  | C[C@@H]1CN(c2ccnn3c(F)c(-c4cnn(C)c4)nc23)C(=O)[C@]1(C#N)C1CC1 [Example 183, (3R,4S)-3-cyclopropyl-1-(3-fluoro-2-(1-methyl-1H-pyrazol-4-yl)imidazo[1,2-b]pyridazin-8-yl)-4-methyl-2-oxopyrrolidine-3-carbonitrile] |
| 100 to 1000 | 100 to 1000 | 20 to 50 | 1000 to 5000 |  |  |  |  | COc1cc(-c2cn3nccc3c(N3C[C@@H](C)[C@@](C#N)(C4CC4)C3=O)n2)c(F)cn1 [Example 196, (3R,4S)-3-cyclopropyl-1-(6-(5-fluoro-2-methoxypyridin-4-yl)pyrazolo[1,5-a]pyrazin-4-yl)-4-methyl-2-oxopyrrolidine-3-carbonitrile] |
| 100 to 1000 | 100 to 1000 | 20 to 50 | 1000 to 5000 |  |  |  |  | Cc1nn(C)c(C)c1-c1cn2nccc2c(N2C[C@@H](C)[C@@](C#N)(C3CC3)C2=O)n1 [Example 200, (3R,4S)-3-cyclopropyl-4-methyl-2-oxo-1-(6-(1,3,5-trimethyl-1H-pyrazol-4-yl)pyrazolo[1,5-a]pyrazin-4-yl)pyrrolidine-3-carbonitrile] |
| 1000 to 5000 | 1000 to 5000 | 50 to 100 | > 10000 |  |  |  |  | C[C@@H]1CN(c2nc(-c3ncccc3F)cn3nccc23)C(=O)[C@]1(C#N)C1CC1 [Example 212, (3R,4S)-3-cyclopropyl-1-(6-(3-fluoropyridin-2-yl)pyrazolo[1,5-a]pyrazin-4-yl)-4-methyl-2-oxopyrrolidine-3-carbonitrile] |
| > 10000 | > 10000 | > 100 | > 10000 |  |  |  |  | C[C@@H]1CN(c2nccn3nc(-c4cnn(C)c4)cc23)C(=O)[C@]1(C#N)C1CC1 [Example 216, (3R,4S)-3-cyclopropyl-4-methyl-1-(2-(1-methyl-1H-pyrazol-4-yl)pyrazolo[1,5-a]pyrazin-4-yl)-2-oxopyrrolidine-3-carbonitrile] |
|  |  |  |  | 100 to 1000 | 1000 to 5000 | 50 to 100 | 1000 to 5000 | C[C@@H]1CN(c2nc(-c3cccnc3)cn3ncc(F)c23)C(=O)[C@]1(C#N)C1CC1 [Example 222, (3R,4S)-3-cyclopropyl-1-(3-fluoro-6-(pyridin-3-yl)pyrazolo[1,5-a]pyrazin-4-yl)-4-methyl-2-oxopyrrolidine-3-carbonitrile] |
|  |  |  |  | 1000 to 5000 | 1000 to 5000 | 50 to 100 | 1000 to 5000 | COc1cncc(-c2cn3ncc(F)c3c(N3C[C@@H](C)[C@@](C#N)(C4CC4)C3=O)n2)c1 [Example 223, (3R,4S)-3-cyclopropyl-1-(3-fluoro-6-(5-methoxypyridin-3-yl)pyrazolo[1,5-a]pyrazin-4-yl)-4-methyl-2-oxopyrrolidine-3-carbonitrile] |
|  |  |  |  | 1000 to 5000 | 100 to 1000 | 20 to 50 | 1000 to 5000 | COc1ccc(-c2cn3nccc3c(N3C[C@@H](C)[C@@](C#N)(C4CC4)C3=O)n2)cn1 [Example 224, (3R,4S)-3-cyclopropyl-1-(6-(6-methoxypyridin-3-yl)pyrazolo[1,5-a]pyrazin-4-yl)-4-methyl-2-oxopyrrolidine-3-carbonitrile] |
|  |  |  |  | > 10000 | 5000 to 10000 | > 100 | > 10000 | C[C@@H]1CN(c2nc(-c3cccnc3F)cn3nccc23)C(=O)[C@]1(C#N)C1CC1 [Example 226, (3R,4S)-3-cyclopropyl-1-(6-(2-fluoropyridin-3-yl)pyrazolo[1,5-a]pyrazin-4-yl)-4-methyl-2-oxopyrrolidine-3-carbonitrile trifluoroacetate] |
|  |  |  |  | 1000 to 5000 | 1000 to 5000 | > 100 | > 10000 | C[C@@H]1CN(c2nc(-c3ccn(C)n3)cn3nccc23)C(=O)[C@]1(C#N)C1CC1 [Example 229, (3R,4S)-3-cyclopropyl-4-methyl-1-(6-(1-methyl-1H-pyrazol-3-yl)pyrazolo[1,5-a]pyrazin-4-yl)-2-oxopyrrolidine-3-carbonitrile trifluoroacetate] |
|  |  |  |  | > 10000 | > 10000 | > 100 | > 10000 | COc1cc(-c2cn3nccc3c(N3C[C@@H](C)[C@@](C#N)(C4CC4)C3=O)n2)ccn1 [Example 231, (3R,4S)-3-cyclopropyl-1-(6-(2-methoxy-pyridin-4-yl)pyrazolo[1,5-a]pyrazin-4-yl)-4-methyl-2-oxopyrrolidine-3-carbonitrile trifluoroacetate] |
|  |  |  |  | > 10000 | > 10000 | > 100 | > 10000 | C[C@@H]1CN(c2nc(-c3ccc(C(F)(F)F)nc3)cn3nccc23)C(=O)[C@]1(C#N)C1CC1 [Example 238, (3R,4S)-3-cyclopropyl-4-methyl-2-oxo-1-(6-(6-(trifluoromethyl)pyridin-3-yl)pyrazolo[1,5-a]pyrazin-4-yl)pyrrolidine-3-carbonitrile trifluoroacetate] |

Reference: US20260297085A1, “1 H-PYRROLO[2,3-B]PYRIDIN-4-YL]-2-OXOPYRROLIDINE-3-CARBONITRILE DERIVATIVES AS TYROSINE KINASE 2 (TYK2) INHIBITORS FOR THE TREATMENT OF INFLAMMATORY DISEASES” (BIOGEN MA INC., priority 2023, published 2026)
